Reference: US7456018B2, “Human hepatoma lines, methods for obtaining same and uses thereof” (priority 2001, dated 2008)
“Also recorded” adds a separate entry of the source.

Experiments:
HBV [1] = assay: Antiviral activity of 3TC on HBV-infected HepaRG cells, viral DNA by Amplicor-Monitor test; assay type: cell-based, hepatitis B virus; conditions: day 8 to 15 after infection, vs infected non-treated control
Method: (§1) The cells are maintained and infected according to the protocols of Examples 1 and 5.
[…] A complete replenishment of the medium is carried out every two days. The supernatants are stored at −20° C. and the cell pellets at −80° C.
The viral DNA present in the culture supernatant could be detected and quantified by the Amplicor-Monitor test (ROCHE). The results are expressed as number of viral particles/ml. For the analysis of intracellular viral DNA, the cells were separated with trypsin and stored at −80° C. The total DNA was isolated according to the protocol described previously (Zoulim et al., 1998, Drug therapy for chronic hepatitis B virus replication. J. Hepatol. 29:151-168).

HBV [2] = assay: HBs antigen in culture supernatant of HBV-infected HepaRG cells treated by 3TC (ELISA); assay type: cell-based, hepatitis B virus; conditions: after 8 days of treatment by 3TC, all doses
Method: as §1
The antiviral treatment by 3TC is administered from the 8th day to the 15th day following the infection of the HepaRG cells, at final concentrations of 0.1 and 10 μM in the culture medium. A complete replenishment of the medium is carried out every two days. The supernatants are stored at −20° C. and the cell pellets at −80° C.
The viral antigen (HBs) was detected in the culture supernatant using the commercial ELISA test ETI-MAK-3® (SORIN).

HepaRG cells [3] = assay: Biliary/hepatocyte route differentiation of HepaRG cells, in situ marking (indirect immunohistochemistry); assay type: cell-based, human; set-up: Cytokeratin 19 expression: key: −/+: weakly positive; +: positive; ++: highly positive; conditions: HepaRG cells treated with 2% DMSO or 3.75 mM sodium butyrate; on Albumin expression: key: −/+: weakly positive; +: positive; ++: highly positive; on Cytokeratin 7 expression: key: −/+: weakly positive; +: positive; ++: highly positive; on α1 chain expression: key: −/+: weakly positive; +: positive; ++: highly positive; on α6 chain expression: key: −/+: weakly positive; +: positive; ++: highly positive; on γ-glutamyl transferase expression: key: −/+: weakly positive; +: positive; ++: highly positive
Method: HepaRG cells were separated, diluted to ⅕ in Williams' E medium to which 5 μg/ml of insulin, 100 U/ml of penicillin, 100 μg/ml of streptomycin, 510-5M of hydrocortisone hemisuccinate, 2 mM of L-glutamine and 10% FCS were added, then redistributed into wells with a plastic support. Four culture conditions were produced: • HepaRG cells were treated with 3.75 mM sodium butyrate in the maintenance medium as from the day following subculture according to the protocol described by Blouin et al. (1995, Specialization switch in differentiating embryonic rat liver progenitor cells in response to sodium butyrate, Exp. cell res., 217: 22-33). The medium is then replenished every 2-3 days, • the HepaRG cells were treated 5 days after subculture by 3.75 mM sodium butyrate or 2% DMSO. The medium was replenished every day for 5 days, • the HepaRG cells were treated at strong confluence by 3.75 mM sodium butyrate; the medium was replenished every 2-3 days, • the HepaRG cells were seeded on a plastic support or monolayer of rat primitive biliary epithelial cells in MEM alpha medium complemented with L-glutamine (2 mM), i-inositol (0.2 mM), folic acid ([…]), β-mercaptoethanol (10^−4 M), transferrin 200 μg/ml, 12.5% FCS and 12.5% horse serum. In certain situations, cytokines such as LIF, IL-3, SCF or G-CSF were added to the medium. This medium was replenished every 2-3 days. Indirect Immunohistochemistry
The cells after washing with PBS are fixed by a solution of 4% paraformaldehyde buffered by 0.1 M sodium cacodylate at pH 7.4 for 20 minutes at 4° C. They are then preserved in a PBS buffer until the time of the analysis.
The specific sites are saturated for 45 minutes with PBS containing 10% FCS. The samples are then treated with primary antibodies for an hour at ordinary temperature in PBS containing 0.05% saponin. After 3 washings in PBS containing 0.05% saponin, the samples are incubated with the second antibody coupled to peroxydase.
The morphological modifications observed in the presence of sodium butyrate are correlated to phenotypical changes (Blouin et al. 1995). We used four markers of differentiation towards the biliary route, γ-glutamyl transferase, the α6 chain of integrins and the cytokeratins 7 and 19 which normally disappear when the cells are directed towards the hepatocyte route. For differentiation towards the hepatocyte route, we looked for an increase in the expression of albumin and a reduction in the expression of the al chain of the integrins.

HBV [4] = assay: Infectability of HepaRG cells by HBV according to culture/differentiation medium, HbsAg secretion; assay type: cell-based, hepatitis B virus
Method: The cells used for the infection are cells having been cultured according to the conditions defined in Example 1 (permanent presence of 5.10^−5M of hydrocortisone hemisuccinate) and having been maintained for a week at confluence, then for 2 weeks in the same medium with 2% of DMSO added.
These cells are incubated with the infectious source, diluted 10 times, in the culture medium with 4% of PEG 8000 (Sigma) added, for 20 hours at 37° C. The second part of this HBV infection protocol was established by Gripon et al., 1993, Virology, 192: 534-540.
At the end of the incubation, the cells are washed three times with culture medium and maintained in the presence of 2% of DMSO and 5.10^−5 M of hydrocortisone hemisuccinate until they are used.
The HBs antigen was detected in the medium using the ELISA kit (Monolisa AgHBs plus®) from Biorad Laboratories. The results are expressed in pg/ml of supernatant.
The ability of the HepaRG cells to be infected was studied as a function of their degree of differentiation. Using the methods described in Examples 1 and 2, the cell differentiation programme was modified.
A first series of infection was carried out on cells continually maintained in the presence of corticoid only, then in the presence of corticoid and different concentrations of DMSO, in order to induce different stages of differentiation.
This correlation was confirmed by a series of experiments carried out on cells infected at confluence (before their differentiation) then placed under optimum conditions in order to induce their differentiation.
Finally, the effectiveness of an infection carried out on undifferentiated cells multiplying actively was compared with that on cells with arrested growth and well-differentiated.

HepaRG cells [5] = assay: Toxicity of DMSO to HepaRG cells without corticoid; assay type: cell-based, human; conditions: 2% of DMSO, HepaRG cells in the absence of corticoid
Method: A first series of experiments was carried out in order to study the effects of the absence of the corticoid on cells having always been maintained in its presence. In FIG. 9A, the HepaRG cells at passage 13, were kept for 2 additional passages either in the continuous presence of hydrocortisone (growth: HN), or in the absence of hydrocortisone (growth: HO). They were then induced to differentiate (diff.) for 3 weeks in the absence of hydrocortisone (HO) or in the presence of hydrocortisone 5×10^−5 M (HN), and in the presence of different concentrations of DMSO.
The withdrawal of the corticoid was carried out at confluence, i.e. at the time when the cells begin their differentiation.
The cells are kept in a culture medium without corticoid and their ability to carry out differentiation is tested after 2 (FIG. 9A) and 10 passages (FIG. 9B).

HCV = assay: Sensitivity of HCV replication in infected HepaRG cells to interferon α, viral RNA by RT-PCR; assay type: cell-based; conditions: 5 U.I./ml
Method: These cells are incubated for 48 hours at 37° C. with the infectious source, diluted 10 times, in the culture medium devoid of FCS and optionally with PEG 8000 (Sigma) added.
The replicative forms of the intracellular viral RNAs were isolated in all the cell lysates. The cells are recovered after separation with trypsin, then the total RNA is extracted using the High Pure RNA Isolation kit (Roche). The quantity of total RNA extracted is estimated by optical density in order to standardize the different samples. The quality and homogeneity of the RNAs are examined by visualizing the ribosomic RNAs (rRNA: 28S and 18S) on a 1% agarose gel stained with ethidium bromide.
The RNAs of the viral particles are extracted from the culture supernatant using the High Pure viral RNA kit (Roche).
By retrotranscription (RT), the complementary DNA (cDNA) of the viral RNAs of positive polarity is synthesized from a specific prime hybridizing at 5′ of the region which codes for the viral capsid protein. This oligonucleotide (5′-[…]-3′), designated as SEQ ID NO:1, derived from that described by Martell et al., 1999, Journal of Clinical Microbiology, 37: 327-332 , designated C-342. The cDNA is then amplified by the “Polymerase Chain Reaction” (PCR) technique using two primers hybridizing in the 5′ non-translated region of the viral genome. The primers used are as follows: the sense oligonucleotide (5′-TGAGTGTCGTRCAGCCTCC-3′), designated as SEQ ID NO:2, and the antisense oligonucleotide (5′-[…]-3′), designated as SEQ ID NO:3, which corresponds to that conceived by Mercier et al., 1999, Journal of Virological Methods, 77 1-9, designated NCR-3. The amplification product (amplicon of 190 pb) is visualized on a 2% agarose gel stained with ethidium bromide. A marker of molecular weight of DNA (M) is also deposited in order to verify the identity of the amplicon by its size. The effectiveness of the different stages is always controlled by detecting the viral RNA present in a standard (T+), which corresponds to a diluted serum, originating from an infected patient. […]

What does the source list for `Nc1ccn([C@@H]2CS[C@H](CO)O2)c(=O)n1` [3TC]?
Inhibition (quantity of viral DNA) (HBV [1]; 3TC 0.1 μM): 69; Inhibition (quantity of viral DNA) (HBV [1]; 3TC 1 μM): 98; Inhibition (quantity of viral DNA) (HBV [1]; 3TC 10 μM): 100; HBs antigen in the culture supernatant (HBV [2]): constant whatever the dose and equal to the non-treated control

With `C[S+](C)[O-]` [DMSO] as the compound, how does the Albumin expression (HepaRG cells [3]) read?
Its Albumin expression is “++”.

What about the α1 chain expression (HepaRG cells [3]) of the same compound?
The α1 chain expression was “+”.

What about the γ-glutamyl transferase expression (HepaRG cells [3]) of the same compound?
The γ-glutamyl transferase expression was “−/+”.

And the HbsAg secretion (HBV [4]; DMSO 1% in differentiation medium after day 17, infection on day 15, supernatant 47 days after seeding)?
Its HbsAg secretion is 70 pg/mL.

And the HbsAg secretion (HBV [4]; DMSO 1% in differentiation medium after day 17, infection on day 28, supernatant 47 days after seeding)?
The HbsAg secretion was 214 pg/mL.

And the HbsAg secretion (HBV [4]; DMSO 2% in differentiation medium after day 17, infection on day 15, supernatant 47 days after seeding)?
Its HbsAg secretion is 79 pg/mL.

And the HbsAg secretion (HBV [4]; DMSO 2% in differentiation medium after day 17, infection on day 28, supernatant 47 days after seeding)?
The HbsAg secretion was greater than 2000 pg/mL.

What about the “Toxicity of the addition of DMSO” value (HepaRG cells [5]) of the same compound?
Its value is “so toxic that its use is impossible; also recorded: highly toxic”.

Which HbsAg secretion (HBV [4]; culture HN, HN after 17th day, infection D3 (growth), 47 days after seeding) does the source give for hydrocortisone hemisuccinate [HN] here?
Its HbsAg secretion is 33 pg/mL.

And the HbsAg secretion (HBV [4]; culture HN, HN after 17th day, infection D5 (growth), 47 days after seeding)?
Its HbsAg secretion is 37 pg/mL.

And the HbsAg secretion (HBV [4]; culture HN, HN after 17th day, infection D10 (confluence), 47 days after seeding)?
Its HbsAg secretion is 93 pg/mL.

What about the HbsAg secretion (HBV [4]; culture HN, HN with 2% of DMSO after 17th day, infection D3 (growth), 47 days after seeding) of the same compound?
Its HbsAg secretion is 41 pg/mL.

What about the HbsAg secretion (HBV [4]; culture HN, HN with 2% of DMSO after 17th day, infection D5 (growth), 47 days after seeding) of the same compound?
Its HbsAg secretion is 84 pg/mL.

What about the HbsAg secretion (HBV [4]; culture HN, HN with 2% of DMSO after 17th day, infection D10 (confluence), 47 days after seeding) of the same compound?
The HbsAg secretion was 171 pg/mL.

“interferon α: antiviral cytokine (Introna®, Schering-Plough, France)” was tested. Which “Extracellular viral RNA, kinetics” value (HCV; after four days of incubation, Day 10 to Day 12) did it give?
The value was “no extracellular viral RNA is detected”.

What about the “Viral RNA signal in the extracellular medium” value (HCV; six days of treatment, 12th day after infection) of the same compound?
The value was “complete disappearance of the signal”.

What about the “Drop of the intracellular viral RNA signal” value (HCV; six days of treatment, 12th day after infection, serum No. 4) of the same compound?
Its value is “more than 60%”.

How did the Albumin expression (HepaRG cells [3]) turn out when `CCCC(=O)[O-].[Na+]` [Sodium butyrate, sodium butyrate] was run?
Its Albumin expression is “−/+”.

And the “Cytokeratin 7 expression” value (HepaRG cells [3])?
Its value is “+”.

What about the “Cytokeratin 19 expression” value (HepaRG cells [3]) of the same compound?
Its value is “++”.

What about the α1 chain expression (HepaRG cells [3]) of the same compound?
The α1 chain expression was “−/+”.

And the α6 chain expression (HepaRG cells [3])?
Its α6 chain expression is “+”.

And the γ-glutamyl transferase expression (HepaRG cells [3])?
Its γ-glutamyl transferase expression is “++”.
